Reference: US20250122188A1, “MODULATORS OF THE INTEGRATED STRESS PATHWAY” (Calico Life Sciences LLC, priority 2016, published 2025)
Like-named read-outs stand apart in the source and are kept apart here.

Columns and labels:
Format in all cases: cell-based
[1] = tested on: eIF2B mutant B4 R357W; assay: ATF4-Luc assay, VWMD eIF2B mutant HEK293T ATF4-Fluc cells, B4 R357W; details: Homo sapiens, HEK-293T
Description: (§1) In order to test exemplary compounds of the invention in a cellular context, a stable VWMD cell line was first constructed. The ATF4 reporter was prepared by fusing the human full-length ATF4 5′-UTR (NCBI Accession No. BC022088.2) in front of the firefly luciferase (FLuc) coding sequence lacking the initiator methionine as described in Sidrauski et al (eLife 2013). The construct was used to produce recombinant retroviruses using standard methods and the resulting viral supernatant was used to transduce HEK293T cells, which were then subsequently selected with puromycin to generate a stable cell line.
(§2) HEK293T cells carrying the ATF4 luciferase reporter were plated on polylysine coated 384-well plates (Greiner Bio-one) at 30,000 cells per well. Cells were treated the next day with 1 μg/mL tunicamycin and 200 nM of a compound of Formula (I) for 7 hours. Luminescence was measured using One Glo (Promega) as specified by the manufacturer. Cells were maintained in DMEM with L-glutamine supplemented with 10% heat-inactivated FBS (Gibco) and Antibiotic-Antimycotic solution (Gibco).
(§3) VWMD mutations were introduced into the genome of the HEK293T ATF4-Fluc stable cell lines by using Gene Art CRISPR nuclease vector with OFP Reporter kit (ThermoFisher; see Table 3 below). Guide RNAs were designed using the CRISPR Design Tool (http://crispr.mit.edu) and ligated into the CRISPR OFP Nuclease Vector. To obtain homology directed repair (HDR) incorporating VWMD point mutations in the genome, 150 bp ssDNA ultramer oligos were synthesized by Integrated DNA Technologies containing specific mutations of interest. In addition to the VWMD mutations, the ssDNA HDR templates contained a silent mutation to the PAM site of the CRISPR gRNA sequence (to avoid further Cas9 cutting) and 75 bp of homology on each side of the mutation.
(§4) HEK293T ATF4-Fluc cells were transfected with 500 ng of the CRISPR OFP Nuclease Vector and 1 μL of 10 μM ssDNA HDR template using lipofectamine 3000 (ThermoFisher) or SF Cell Line 4D-nucleofector X Kit (Lonza) according to the manufacturer's instructions. After 2-3 days of recovery, single cells were sorted for positive OFP expression on a FACS Aria II (BD Biosciences) into wells of a 96 well plate and allowed to recover for 1-2 weeks.
(§5) The resulting clones were surveyed for CRISPR editing and HDR by harvesting the genomic DNA with the PureLink Genomic DNA kit (ThermoFisher), amplifying a […] locus near the editing site, and sequencing the amplicon. […] Typical clones obtained were hemizygous for the VWMD point mutation, with one or two alleles harboring the desired mutation, and the remaining alleles knocked out (edited to produce a premature stop codon).

[2] = tested on: eIF2B mutant B1 V184; assay: ATF4-Luc assay, VWMD eIF2B mutant HEK293T ATF4-Fluc cells, B1 V184; details: Homo sapiens, HEK-293T
Description: as §1, §2, §3, §4, §5

[3] = tested on: eIF2B mutant B3 I346T; assay: ATF4-Luc assay, VWMD eIF2B mutant HEK293T ATF4-Fluc cells, B3 I346T; details: Homo sapiens, HEK-293T
Description: as §1, §2, §3, §4, §5

[4] = tested on: eIF2B mutant B5 R113H; assay: ATF4-Luc assay, VWMD eIF2B mutant HEK293T ATF4-Fluc cells, B5 R113H; details: Homo sapiens, HEK-293T
Description: as §1, §2, §3, §4, §5

[5] = tested on: eIF2B mutant B3 H341Q; assay: ATF4-Luc assay, VWMD eIF2B mutant HEK293T ATF4-Fluc cells, B3 H341Q; details: Homo sapiens, HEK-293T
Description: as §1, §2, §3, §4, §5

[6] = tested on: eIF2B mutant B5 R195H; assay: ATF4-Luc assay, VWMD eIF2B mutant HEK293T ATF4-Fluc cells, B5 R195H; details: Homo sapiens, HEK-293T
Description: as §1, §2, §3, §4, §5

[7] = tested on: eIF2B mutant B4 R483W; assay: ATF4-Luc assay, VWMD eIF2B mutant HEK293T ATF4-Fluc cells, B4 R483W; details: Homo sapiens, HEK-293T
Description: as §1, §2, §3, §4, §5

[8] = tested on: ATF4 luciferase reporter in HEK293T cells; assay: ATF4-Luc assay, HEK293T cells carrying the ATF4 luciferase reporter (in vitro model of VWMD); details: Homo sapiens, HEK-293T, read-out: ATF4-Luc EC50
Description: as §1, §2

[9] = HEK293T ATF4 luciferase reporter cells, 1 μg/mL tunicamycin, 7 hours

How did the EC50 [1] turn out when `O=C(COc1ccc(Cl)cc1)NC12CC(NC(=O)COc3ccc(Cl)cc3)(C1)C2` [Compound 112, N,N′-(bicyclo[1.1.1]pentane-1,3-diyl)bis[2-(4-chlorophenoxy)acetamide]] was run?
The EC50 was under 10 nM.

What about the EC50 [2] of the same compound?
Its EC50 is under 10 nM.

What about the EC50 [3] of the same compound?
Its EC50 is under 10 nM.

What about the EC50 [4] of the same compound?
Its EC50 is under 10 nM.

What about the EC50 [5] of the same compound?
The EC50 was under 10 nM.

And the EC50 [6]?
The EC50 was under 10 nM.

What about the EC50 [7] of the same compound?
Its EC50 is under 10 nM.

`O=C(COc1ccc(C(F)(F)F)nc1)NC12CC(NC(=O)COc3ccc(Cl)c(F)c3)(C1)C2` [Compound 175, 2-(4-chloro-3-fluorophenoxy)-N-[3-(2-{[6-(trifluoromethyl)pyridin-3-yl]oxy}acetamido)bicyclo[1.1.1]pentan-1-yl]acetamide] was tested. Which EC50 [1] did it give?
Its EC50 is 10 to 50 nM.

And the EC50 [2]?
The EC50 was 50 to 250 nM.

And the EC50 [3]?
Its EC50 is under 10 nM.

And the EC50 [4]?
Its EC50 is 10 to 50 nM.

What about the EC50 [5] of the same compound?
Its EC50 is 10 to 50 nM.

What about the EC50 [6] of the same compound?
The EC50 was 10 to 50 nM.

What about the EC50 [7] of the same compound?
The EC50 was under 10 nM.

What does the source list for `Cc1noc(COCC(=O)NC23CC(NC(=O)COc4ccc(Cl)c(F)c4)(C2)C3)n1` [Compound 217, 2-(4-chloro-3-fluorophenoxy)-N-(3-{2-[(3-methyl-1,2,4-oxadiazol-5-yl)methoxy]acetamido}bicyclo[1.1.1]pentan-1-yl)acetamide]?
EC50 [1]: > 2000 nM; EC50 [2]: > 2000 nM; EC50 [3]: > 2000 nM; EC50 [4]: > 2000 nM; EC50 [5]: > 2000 nM; EC50 [6]: > 2000 nM; EC50 [7]: > 2000 nM

Which results are given for `O=C(COc1ccc(Cl)c(F)c1)NC12CCC(NC(=O)COc3ccc(Cl)c(F)c3)(CC1)[C@H](O)C2` [Compound 298, N,N′-[(2R)-2-hydroxybicyclo[2.2.2]octane-1,4-diyl]bis[2-(4-chloro-3-fluorophenoxy)acetamide]]?
EC50 [1]: < 10 nM; EC50 [2]: < 10 nM; EC50 [3]: < 10 nM; EC50 [4]: < 10 nM; EC50 [8, 9]: < 10 nM; EC50 [5]: < 10 nM; EC50 [6]: < 10 nM; EC50 [7]: < 10 nM

With `O=C(/C=C/c1ccc(OC(F)(F)F)cn1)NC12CC(NC(=O)COc3ccc(Cl)c(F)c3)(C1)C2` [Compound 376, (2E)-N-{3-[2-(4-chloro-3-fluorophenoxy)acetamido]bicyclo[1.1.1]pentan-1-yl}-3-[5-(trifluoromethoxy)pyridin-2-yl]prop-2-enamide] as the compound, how does the EC50 [8, 9] read?
The EC50 was 250 to 500000 nM.

How did the EC50 [8, 9] turn out when `O=C(COc1ccc(C(F)F)cc1)NC12CC(NC(=O)COc3ccc(C(F)F)cc3)(C1)C2` [Compound 389, N,N′-(bicyclo[1.1.1]pentane-1,3-diyl)bis{2-[4-(difluoromethyl)phenoxy]acetamide}] was run?
The EC50 was 250 to 500000 nM.

Which EC50 [8, 9] does the source give for `O=C(COc1ccc2c(c1)OC(F)(F)O2)NC12CCC(NC(=O)COc3ccc4c(c3)OC(F)(F)O4)(C1)C2` [Compound 391, N,N′-(bicyclo[2.1.1]hexane-1,4-diyl)bis{2-[(2,2-difluoro-2H-1,3-benzodioxol-5-yl)oxy]acetamide}] here?
Its EC50 is 250 to 500000 nM.

For `CC(O)(c1ccc(OCC(=O)NC23CC(NC(=O)COc4ccc(Cl)c(F)c4)(C2)C3)cc1)C(F)(F)F` (stereo not shown) [Compound 413, 2-(4-chloro-3-fluorophenoxy)-N-(3-{2-[4-(1,1,1-trifluoro-2-hydroxypropan-2-yl)phenoxy]acetamido}bicyclo[1.1.1]pentan-1-yl)acetamide], which EC50 [8, 9] is on record?
Its EC50 is 250 to 500000 nM.

Which EC50 [8, 9] does the source give for `CC(C)(O)c1ccc(OCC(=O)NC23CC(NC(=O)COc4ccc(Cl)c(Cl)c4)(C2)C3)cc1` [Compound 422, 2-(3,4-dichlorophenoxy)-N-(3-{2-[4-(2-hydroxypropan-2-yl)phenoxy]acetamido}bicyclo[1.1.1]pentan-1-yl)acetamide] here?
The EC50 was 250 to 500000 nM.

How did the EC50 ([8]; 7 h) turn out when `O=C(COc1ccc(Cl)c(F)c1)NC12CC(NC(=O)Oc3ccc(Cl)cc3)(C1)C2` [Compound 434, 4-chlorophenyl {3-[2-(4-chloro-3-fluorophenoxy)acetamido]bicyclo[1.1.1]pentan-1-yl}carbamate] was run?
Its EC50 is 250 to 500000 nM.

How did the EC50 ([8]; 7 h) turn out when `Cc1ccc(OC(=O)NC23CC(NC(=O)COc4ccc(Cl)c(F)c4)(C2)C3)cc1` [Compound 435, 4-methylphenyl {3-[2-(4-chloro-3-fluorophenoxy)acetamido]bicyclo[1.1.1]pentan-1-yl}carbamate] was run?
The EC50 was 250 to 500000 nM.

`CCc1cc(C)cc(OCC(=O)NC23CCC(NC(=O)COc4ccc(Cl)c(F)c4)(CC2)C[C@@H]3O)c1` [Compound 494, 2-(4-chloro-3-fluorophenoxy)-N-{(3S)-4-[2-(3-ethyl-5-methylphenoxy)acetamido]-3-hydroxybicyclo[2.2.2]octan-1-yl}acetamide] was tested. Which EC50 [8, 9] did it give?
The EC50 was 250 to 500000 nM.

With `COc1cc(OC)nc(OCC(=O)NC23CCC(NC(=O)COc4ccc(Cl)c(F)c4)(CC2)C[C@@H]3O)n1` [Compound 498, 2-(4-chloro-3-fluorophenoxy)-N-[(3S)-4-{2-[(4,6-dimethoxypyrimidin-2-yl)oxy]acetamido}-3-hydroxybicyclo[2.2.2]octan-1-yl]acetamide] as the compound, how does the EC50 [8, 9] read?
The EC50 was 250 to 500000 nM.

For `O=C(COc1ccc(Cl)c(F)c1)NC12CCC(NC(=O)COc3ncccn3)(CC1)[C@@H](O)C2` [Compound 500, 2-(4-chloro-3-fluorophenoxy)-N-[(3S)-3-hydroxy-4-{2-[(pyrimidin-2-yl)oxy]acetamido}bicyclo[2.2.2]octan-1-yl]acetamide], which EC50 [8, 9] is on record?
Its EC50 is over 2000 nM.

How did the EC50 [8, 9] turn out when `CC(C)(C)c1ccc(OCC(=O)NC23CCC(NC(=O)COc4ccc(Cl)c(F)c4)(CC2)C[C@@H]3O)cc1` [Compound 506, 2-(4-tert-butylphenoxy)-N-{(2S)-4-[2-(4-chloro-3-fluorophenoxy)acetamido]-2-hydroxybicyclo[2.2.2]octan-1-yl}acetamide] was run?
Its EC50 is 250 to 500000 nM.
